Test systems include CCRF-CEM leukemia; DU-145 prostate; HCC-2998 colon; HCT-15 colon; KM12 colon; MDA-MB-231 breast; MOLT-4 leukemia; NCI-H226 lung; NCI-H460 lung; OVCAR-4 ovarian.
Common to all, as to test: NCI tumour cell line growth inhibition, 48 h

Several values for one entry are separate records, joined by “and”; a condition that tells them apart may be missing. Identical values can stand only once.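 All cell lines were grown in 96-well plates and treated with compound for 48 hours. GI50 = concentration required for 50% inhibition of growth. TGI denotes the concentration required for complete inhibition of growth.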

Consider `COc1ccc(/C=C2\SC(=Nc3ccccc3)NC2=O)cc1`, for which the GI50 with CCRF-CEM leukemia is 5.4 µM; with DU-145 prostate, 11.4 µM; with HCC-2998 colon, 10 µM; in the assay with HCT-15 colon, 2730 nM; with KM12 colon, 4.37 µM; with MDA-MB-231 breast, 4.58 µM. The GI50 was 4.77 µM with MOLT-4 leukemia, 13.8 µM with NCI-H226 lung, 3.36 µM in the assay with NCI-H460 lung and 10 µM with OVCAR-4 ovarian. The TGI is > 100 µM with CCRF-CEM leukemia; 71.5 µM in the assay on DU-145 prostate; > 100 µM in the assay with HCC-2998 colon; > 100 µM with HCT-15 colon; 22 µM in the assay with KM12 colon; 38.7 µM with MDA-MB-231 breast. For the same compound, the TGI with MOLT-4 leukemia is > 100 µM; in the assay on NCI-H226 lung, > 100 µM; in the assay on NCI-H460 lung it was 13.4 µM; in the assay on OVCAR-4 ovarian it was 25.7 µM.
As for `COc1ccc(/C(C#N)=C/c2cc(OC)c(OC)c(OC)c2)cc1`, the GI50 with CCRF-CEM leukemia is 22.1 µM; in the assay with DU-145 prostate it was 40.1 µM; in the assay on HCC-2998 colon, 23.1 µM; with HCT-15 colon it was 7960 nM; in the assay on KM12 colon it was 12.7 µM; in the assay with MDA-MB-231 breast it was 14.1 µM. In addition, the GI50 with MOLT-4 leukemia is 20.2 µM; in the assay with NCI-H226 lung it was 29.1 µM; with NCI-H460 lung it was 29.6 µM; in the assay with OVCAR-4 ovarian, 38.4 µM. In addition, the TGI in the assay with CCRF-CEM leukemia was 78.6 µM; in the assay on DU-145 prostate, > 100 µM; in the assay with HCC-2998 colon, > 100 µM; with HCT-15 colon it was > 100 µM; in the assay with KM12 colon, > 100 µM; with MDA-MB-231 breast it was > 100 µM. Further, the TGI with MOLT-4 leukemia is 66 µM; in the assay on NCI-H226 lung, > 100 µM; in the assay with NCI-H460 lung, > 100 µM; in the assay on OVCAR-4 ovarian it was > 100 µM.
Regarding `CC(C)C(=O)c1c(C(F)(F)F)n([O-])c2cc(F)c(F)cc2[n+]1=O`, the GI50 in the assay on CCRF-CEM leukemia was 0.0218 µM; in the assay on DU-145 prostate, 0.592 µM; with HCC-2998 colon, 0.326 µM; in the assay on HCT-15 colon it was 147 nM; with KM12 colon it was 1.83 µM; in the assay on MDA-MB-231 breast, 0.176 µM. Moreover, the GI50 with MOLT-4 leukemia is 0.0933 µM; in the assay on NCI-H226 lung, 1.26 µM; in the assay with NCI-H460 lung it was 0.811 µM; with OVCAR-4 ovarian it was 0.842 µM. Also, the TGI is > 100 µM in the assay with CCRF-CEM leukemia; 1.72 µM in the assay on DU-145 prostate; 1.37 µM in the assay with HCC-2998 colon; 0.309 µM in the assay with HCT-15 colon; 4.69 µM in the assay on KM12 colon; 0.77 µM in the assay with MDA-MB-231 breast. Besides, the TGI in the assay with NCI-H226 lung came to 2.54 µM; in the assay on NCI-H460 lung, 2.81 µM; with OVCAR-4 ovarian, 2.89 µM.
For the compound `NC(=O)c1cccc(OCC(O)CO)c1` (stereo not drawn), the TGI in the assay on CCRF-CEM leukemia, with DU-145 prostate, in the assay on HCC-2998 colon, in the assay on HCT-15 colon, with KM12 colon and with MDA-MB-231 breast was > 100 µM each time. In addition, the TGI with MOLT-4 leukemia, in the assay with NCI-H226 lung, in the assay with NCI-H460 lung and in the assay on OVCAR-4 ovarian was > 100 µM each time.
In the case of `CC(C)c1cccc(O)c(=O)c1`, the GI50 in the assay with CCRF-CEM leukemia was 0.312 µg/mL; in the assay on DU-145 prostate, 2.1 µg/mL; with HCC-2998 colon, 1.63 µg/mL; in the assay with HCT-15 colon, 0.997 µg/mL; in the assay with KM12 colon, 2.41 µg/mL; in the assay with MDA-MB-231 breast, 6.73 µg/mL. For the same compound, the GI50 in the assay with NCI-H460 lung is 0.31 µg/mL. Also, the TGI with DU-145 prostate is 24.7 µg/mL; in the assay on HCT-15 colon it was > 75 µg/mL and > 100 µM; in the assay on KM12 colon, > 75 µg/mL and > 100 µM; in the assay with MDA-MB-231 breast, > 75 µg/mL; in the assay with MOLT-4 leukemia, > 46.9 µM; with NCI-H226 lung, 50.1 µM. Besides, the TGI with OVCAR-4 ovarian was > 100 µM.
With `Nc1ccc(COC(O)CN2CCCCC2)cc1[N+](=O)[O-]` (stereo not drawn), the TGI with CCRF-CEM leukemia, in the assay on DU-145 prostate, in the assay on HCC-2998 colon, in the assay with HCT-15 colon, in the assay with KM12 colon and in the assay on MDA-MB-231 breast was > 100 µM throughout. Moreover, the TGI with MOLT-4 leukemia, in the assay on NCI-H226 lung, with NCI-H460 lung and in the assay with OVCAR-4 ovarian was > 100 µM each time.
`CC1(C)OC(=O)C(C#N)=C1C[n+]1ccccc1`: the TGI with CCRF-CEM leukemia, in the assay with DU-145 prostate, with HCC-2998 colon, with HCT-15 colon, in the assay with KM12 colon and in the assay with MDA-MB-231 breast was > 10 µM throughout. Further, the TGI in the assay with MOLT-4 leukemia, in the assay on NCI-H226 lung, with NCI-H460 lung and with OVCAR-4 ovarian was > 10 µM throughout.
On to `C=C1SC(=Nc2ccccc2Cl)N(C(=O)c2sc3ccccc3c2Cl)C12CCCCC2`, for which the GI50 in the assay with CCRF-CEM leukemia is 5.41 µM; in the assay on DU-145 prostate it was 6.2 µM; with HCC-2998 colon it was 7.27 µM; in the assay with HCT-15 colon, 5450 nM; in the assay with KM12 colon, 4.73 µM; in the assay on MDA-MB-231 breast, 4.9 µM. For the same compound, the GI50 with MOLT-4 leukemia was 4.72 µM; with NCI-H226 lung, 40 µM; with NCI-H460 lung, 4.71 µM; in the assay with OVCAR-4 ovarian, 7.75 µM. Further, the TGI with CCRF-CEM leukemia, with DU-145 prostate, in the assay with HCC-2998 colon, in the assay on HCT-15 colon, in the assay on KM12 colon and in the assay with MDA-MB-231 breast was > 100 µM each time. The TGI in the assay with MOLT-4 leukemia, in the assay with NCI-H226 lung, in the assay with NCI-H460 lung and with OVCAR-4 ovarian was > 100 µM each time.
Consider `CC([C@H]1CC=C2C3CCC4=C[C@@H](N(C)C)CC[C@]4(C)C3CC[C@@]21C)N(C)C` (stereo partly drawn), for which the GI50 in the assay on CCRF-CEM leukemia is 2.11 µM; with DU-145 prostate it was 6.63 µM; in the assay with HCC-2998 colon, 4.21 µM; in the assay on HCT-15 colon it was 1380 nM; with KM12 colon it was 2.77 µM; in the assay with MDA-MB-231 breast, 2.33 µM. The GI50 is 1.97 µM with MOLT-4 leukemia, 4.52 µM in the assay on NCI-H226 lung, 2.07 µM with NCI-H460 lung and 3.26 µM with OVCAR-4 ovarian. Besides, the TGI with CCRF-CEM leukemia came to 7.79 µM; in the assay on DU-145 prostate, 20.4 µM; with HCC-2998 colon, 13.1 µM; in the assay on HCT-15 colon, 3.82 µM; in the assay on KM12 colon, 11.9 µM; in the assay with MDA-MB-231 breast, 7.9 µM. Moreover, the TGI came out at 5.31 µM with MOLT-4 leukemia, 21.5 µM in the assay with NCI-H226 lung, 5.48 µM in the assay on NCI-H460 lung and 21.9 µM in the assay with OVCAR-4 ovarian.

(Values after PubChem BioAssay (NCI).)
